These results are taken from patent US6414157B1, “3-Substituted tetrahydropyridopyrimidinone derivatives, method for producing the same, and their use” (Abbott Laboratories, priority 1997, dated 2002).

Structures can show the parent of a compound that is named as a salt.

The subject of data set [1] is serotonin release in the dorsal raphe nucleus. Particulars: dorsal raphe nucleus of the rat; together with paroxetine; cited from earlier work.
Data set [2] concerns serotonin release in the cortex. To be noted: after systemic administration; cited from earlier work.

In turn, `COc1ccccc1N1CCN(CCn2cnc3c(c2=O)CCN(Cc2ccccc2)C3)CC1` (as salt: hydrochloride) registered a melting point of 181 °C.

For the compound `COc1ccccc1N1CCN(CCCn2cnc3c(c2=O)CN(Cc2ccccc2)CC3)CC1` (as salt: hydrochloride), the melting point is 198 °C.

Take `COc1ccc(NC(=O)c2ccc(-c3ccc(-c4noc(C)n4)cc3C)cc2)cc1N1CCN(C)CC1` [GR 127 935]: the “effect of paroxetine on serotonin release” value in data set [1] is given as “potentiated”. In data set [2], the “serotonin release in the cortex” value is recorded as “reduces serotonin release in the cortex”.

The term melting point denotes the temperature of the solid-liquid transition.
